Assay results from ChEMBL document CHEMBL6114978, “Rational design and synthesis of pyrazole derivatives as potential SARS-CoV-2 Mpro inhibitors: An integrated approach merging combinatorial chemistry, molecular docking, and deep learning” (Bioorg Med Chem, 2025).

Legend:
Set-up in all cases: species or system Severe acute respiratory syndrome-related coronavirus
[1] = Inhibition of SARS-CoV Main protease assessed as inhibition constant
[2] = Inhibition of His-tagged SARS-CoV 3CLpro using Abz-SVTLQSG-Tyr(NO2)R as substrate by fluorometric assay
[3] = Inhibition of SARS-CoV Main protease

## Cc1cc(C(=O)N[C@@H](C)C(=O)N[C@H](C(=O)N[C@@H](CC(C)C)C(=O)N[C@H](/C=C/C(=O)OCc2ccccc2)C[C@@H]2CCNC2=O)C(C)(C)C)no1
[1]
  Ki: 3300 nM

## CC(=O)N[C@H](CN[C@H](C(=O)N[C@@H](CC(C)C)C(=O)N[C@@H](C[C@@H]1CCNC1=O)C(=O)Cn1[nH]c(=O)c2c([N+](=O)[O-])cccc2c1=O)[C@@H](C)OCc1ccccc1)C(C)C
[2]
  IC50: 600 nM

## CC(C)(C)c1ccc(N(C(=O)c2cnc[nH]2)[C@@H](C(=O)NC2CCCCC2)c2cccnc2)cc1
[3]
  IC50: 1600 nM
